Read-outs that look alike come from different tables or passages of the source.
Columns and labels:
mV1_630 (ANAP) = mV1_630 (ANAP) (Mus musculus, UniProt Q704Y3, S630X); test: Agonist activation of ANAP-incorporated channel, patch clamp; assay type: cell-based
platypus TRPV1 (pV1) = platypus TRPV1 (pV1) (Ornithorhynchus anatinus, UniProt F7A7B4); test: Agonist activation, patch clamp, HEK293T; assay type: cell-based; conditions: for EC50_Capsaicin: Supp Table 1 data
mV1 P836A = mV1 P836A (Mus musculus, UniProt Q704Y3, P836A); test: Agonist activation, patch clamp, HEK293T; assay type: cell-based; conditions: read-out: EC50_Capsaicin
mV1 K839A = mV1 K839A (Mus musculus, UniProt Q704Y3, K839A); test: Agonist activation, patch clamp, HEK293T; assay type: cell-based; conditions: read-out: EC50_Capsaicin
mV1_685 (ANAP) = mV1_685 (ANAP) (Mus musculus, UniProt Q704Y3, E685X); test: Agonist activation of ANAP-incorporated channel, patch clamp; assay type: cell-based
mV1 CΔ30 (Glu747-Phe776) = mV1 CΔ30 (Glu747-Phe776) (Mus musculus, UniProt Q704Y3, DEL747-776); test: Agonist activation, patch clamp, HEK293T; assay type: cell-based; conditions: read-out: EC50_Capsaicin
mV1 T371G = mV1 T371G (Mus musculus, UniProt Q704Y3, T371G); test: Agonist activation, patch clamp, HEK293T; assay type: cell-based; conditions: read-out: EC50_Capsaicin
mouse TRPV1 (mV1) = mouse TRPV1 (mV1) (Mus musculus, UniProt Q704Y3); conditions: cited from earlier work
Method: The heat activation threshold of pV1, at ~35 °C, is slightly higher than the body core temperature of platypus (32 °C)[17],[18] (Fig. 1b, c), again reminiscent of ot ...

Tree shrew TRPV1 = Tree shrew TRPV1 (Tupaia chinensis, UniProt L8Y7X1); test: Agonist activation, patch clamp, HEK293T; assay type: cell-based, Tupaia belangeri chinensis; conditions: read-out: EC50_Capsaicin
pV1_mNC chimera = pV1_mNC chimera (Ornithorhynchus anatinus, UniProt F7A7B4); test: Agonist activation, patch clamp, HEK293T; assay type: cell-based, platypus / mouse; conditions: read-out: EC50_Capsaicin
Fruit bat TRPV1 = Fruit bat TRPV1 (Carollia brevicauda, UniProt G1DJ79); test: Agonist activation, patch clamp, HEK293T; assay type: cell-based; conditions: read-out: EC50_Capsaicin
mV1 S116A = mV1 S116A (Mus musculus, UniProt Q704Y3, S117A); test: Agonist activation, patch clamp, HEK293T; assay type: cell-based; conditions: read-out: EC50_Capsaicin
mV1 CΔ10 (Phe830-Lys839) = mV1 CΔ10 (Phe830-Lys839) (Mus musculus, UniProt Q704Y3); test: Agonist activation, patch clamp, HEK293T; assay type: cell-based; conditions: read-out: EC50_Capsaicin
pV1_643 (ANAP) = pV1_643 (ANAP) (Ornithorhynchus anatinus, UniProt F7A7B4, S634X)
pV1_mN chimera = pV1_mN chimera (Ornithorhynchus anatinus, UniProt F7A7B4); test: Agonist activation, patch clamp, HEK293T; assay type: cell-based, platypus / mouse; conditions: read-out: EC50_Capsaicin
mV1 M834A = mV1 M834A (Mus musculus, UniProt Q704Y3, M834A); test: Agonist activation, patch clamp, HEK293T; assay type: cell-based; conditions: read-out: EC50_Capsaicin
mV1 CΔ23 (Ser777-Asp799) = mV1 CΔ23 (Ser777-Asp799) (Mus musculus, UniProt Q704Y3, DEL777-799); test: Agonist activation, patch clamp, HEK293T; assay type: cell-based; conditions: read-out: EC50_Capsaicin
[1] = system: DRG neurons of p-trpv1 mice; test: Patch clamp of DRG neurons of p-trpv1 mice; assay type: cell-based, mouse; conditions: small diameter DRG neurons, patch clamping
Method: All recordings were performed at room temperature.
DRG neurons were acutely dissociated and maintained in a short-term primary culture according to procedures. Briefly, after mice were killed by CO2 inhalation and decapitated, vertebral column was opened by a dorsal approach. DRG neurons were collected using fine forceps from both sides of the spinal column and transferred into DMEM medium (GIBCO), and the spinal nerves were cut off using fine ophthalmological scissors and digested by […] (m/m, Sigma) for 20 min. Following the wash of collagenase and trypsin, DRG neurons were incubated at 37 °C in 5% CO2. Cells were used for electrophysiological experiments within the next 24 h.

mV1 D832A = mV1 D832A (Mus musculus, UniProt Q704Y3, D832A); test: Agonist activation, patch clamp, HEK293T; assay type: cell-based; conditions: read-out: EC50_Capsaicin

Structure (SMILES): COc1cc(CNC(=O)CCCC/C=C/C(C)C)ccc1O [Capsaicin, capsaicin]
- EC50 (mV1_630 (ANAP)): 299 nM
- EC50_Capsaicin (mV1_630 (ANAP); replicate 1): 325 nM
- EC50_Capsaicin (mV1_630 (ANAP); replicate 2): 289 nM
- EC50_Capsaicin (mV1_630 (ANAP); replicate 3): 310 nM
- EC50_Capsaicin (mV1_630 (ANAP); replicate 4): 272 nM
- EC50_Capsaicin (platypus TRPV1 (pV1); replicate 1): 367 nM
- EC50_Capsaicin (platypus TRPV1 (pV1); replicate 2): 246 nM
- EC50_Capsaicin (platypus TRPV1 (pV1); replicate 4): 271 nM
- EC50_Capsaicin (platypus TRPV1 (pV1); replicate 5): 368 nM
- activation of pV1 by capsaicin (platypus TRPV1 (pV1); whole-cell, 10 μM): currents elicited
- EC50 (mV1 P836A; mean ± s.e.m., n = 3): 315 nM
- EC50 (mV1 P836A; replicate 1): 262 nM
- EC50 (mV1 P836A; replicate 2): 364 nM
- EC50 (mV1 K839A; mean ± s.e.m., n = 3): 293 nM
- EC50 (mV1 K839A; replicate 1): 268 nM
- EC50 (mV1 K839A; replicate 2): 292 nM
- EC50 (mV1_685 (ANAP)): 295 nM
- EC50_Capsaicin (mV1_685 (ANAP); replicate 1): 321 nM
- EC50_Capsaicin (mV1_685 (ANAP); replicate 3): 335 nM
- EC50_Capsaicin (mV1_685 (ANAP); replicate 4): 287 nM
- EC50_Capsaicin (mV1_685 (ANAP); replicate 5): 299 nM
- EC50_Capsaicin (mV1_685 (ANAP); replicate 6): 268 nM
- EC50_Capsaicin (mV1_685 (ANAP); replicate 7): 335 nM
- EC50_Capsaicin (mV1_685 (ANAP); replicate 8): 254 nM
- EC50 (mV1 CΔ30 (Glu747-Phe776); mean ± s.e.m., n = 5): 372 nM
- EC50 (mV1 CΔ30 (Glu747-Phe776); replicate 1): 252 nM
- EC50 (mV1 CΔ30 (Glu747-Phe776); replicate 2): 260 nM
- EC50 (mV1 CΔ30 (Glu747-Phe776); replicate 3): 424 nM
- EC50 (mV1 CΔ30 (Glu747-Phe776); replicate 4): 463 nM
- EC50 (mV1 CΔ30 (Glu747-Phe776); replicate 5): 461 nM
- EC50 (mV1 T371G; mean ± s.e.m., n = 3): 322 nM
- EC50 (mV1 T371G; replicate 1): 349 nM
- EC50 (mV1 T371G; replicate 2): 332 nM
- capsaicin sensitivity of heat-desensitized channels (mouse TRPV1 (mV1)): less sensitive
- EC50 (Tree shrew TRPV1; mean ± s.e.m., n = 3): 5260 nM
- EC50 (Tree shrew TRPV1; replicate 1): 4932 nM
- EC50 (Tree shrew TRPV1; replicate 2): 5507 nM
- EC50 (Tree shrew TRPV1; replicate 3): 5341 nM
- EC50 (pV1_mNC chimera; mean ± s.e.m., n = 6): 306 nM
- EC50 (pV1_mNC chimera; replicate 3): 300 nM
- EC50 (pV1_mNC chimera; replicate 4): 276 nM
- EC50 (Fruit bat TRPV1; mean ± s.e.m., n = 6): 354 ± 25 nM
- EC50 (Fruit bat TRPV1; replicate 1): 273 nM
- EC50 (Fruit bat TRPV1; replicate 2): 389 nM
- EC50 (Fruit bat TRPV1; replicate 3): 419 nM
- EC50 (Fruit bat TRPV1; replicate 4): 415 nM
- EC50 (Fruit bat TRPV1; replicate 5): 274 nM
- EC50 (Fruit bat TRPV1; replicate 6): 354 nM
- EC50 (mV1 S116A; mean ± s.e.m., n = 3): 186 nM
- EC50 (mV1 S116A; replicate 1): 191 nM
- EC50 (mV1 S116A; replicate 2): 161 nM
- EC50 (mV1 S116A; replicate 3): 206 nM
- EC50 (mV1 CΔ10 (Phe830-Lys839); mean ± s.e.m., n = 6): 354 nM
- EC50 (mV1 CΔ10 (Phe830-Lys839); replicate 1): 215 nM
- EC50 (mV1 CΔ10 (Phe830-Lys839); replicate 3): 313 nM
- EC50 (mV1 CΔ10 (Phe830-Lys839); replicate 4): 407 nM
- EC50 (mV1 CΔ10 (Phe830-Lys839); replicate 5): 457 nM
- EC50 (mV1 CΔ10 (Phe830-Lys839); replicate 6): 463 nM
- EC50_Capsaicin (pV1_643 (ANAP); replicate 1): 323 nM
- EC50_Capsaicin (pV1_643 (ANAP); replicate 2): 276 nM
- EC50_Capsaicin (pV1_643 (ANAP); replicate 3): 290 nM
- EC50_Capsaicin (pV1_643 (ANAP); replicate 4): 327 nM
- EC50_Capsaicin (pV1_643 (ANAP); replicate 6): 351 nM
- EC50 (pV1_mN chimera; mean ± s.e.m., n = 6): 313 nM
- EC50 (pV1_mN chimera; replicate 2): 294 nM
- EC50 (pV1_mN chimera; replicate 3): 360 nM
- EC50 (pV1_mN chimera; replicate 5): 279 nM
- EC50 (mV1 M834A; mean ± s.e.m., n = 3): 329 ± 23 nM
- EC50 (mV1 M834A; replicate 1): 280 nM
- EC50 (mV1 M834A; replicate 2): 378 nM
- EC50 (mV1 M834A; replicate 3): 329 nM
- EC50 (mV1 CΔ23 (Ser777-Asp799); mean ± s.e.m., n = 3): 398 nM
- EC50 (mV1 CΔ23 (Ser777-Asp799); replicate 1): 320 nM
- EC50 (mV1 CΔ23 (Ser777-Asp799); replicate 2): 353 nM
- EC50 (mV1 CΔ23 (Ser777-Asp799); replicate 3): 521 nM
- response to capsaicin [1]: well maintained
- EC50 (mV1 D832A; mean ± s.e.m., n = 3): 361 nM
- EC50 (mV1 D832A; replicate 1): 372 nM
- EC50 (mV1 D832A; replicate 2): 282 nM
- EC50 (mV1 D832A; replicate 3): 429 nM

From publication PMC6513986, “Molecular basis for heat desensitization of TRPV1 ion channels” (Nature Communications, 2019)
